Measurements: the NIST ThermoML archive (doi:10.1016/j.jct.2015.02.024)
± gives the expanded uncertainty stated by the source.

Assay: activity coefficient (dimensionless); of the first substance listed, at infinite dilution; xn = mol fraction of the nth substance listed
Settings: 101 kPa, Liquid, Chromatography, x1 = 0

SMILES	activity coefficient (318.15 K)	activity coefficient (328.15 K)	activity coefficient (338.15 K)	activity coefficient (348.15 K)	activity coefficient (358.15 K)	activity coefficient (368.15 K)	activity coefficient (298.15 K)	activity coefficient (308.15 K)
CCC(=O)CC [pentan-3-one] + C[N+]1(CCCO)CCOCC1.O=S(=O)([N-]S(=O)(=O)C(F)(F)F)C(F)(F)F	1.28 ± 0.08	1.33 ± 0.09	1.4 ± 0.09	1.45 ± 0.1	1.52 ± 0.1	1.57 ± 0.1	–	–
C=CCCCCCCCC [1-decene] + C[N+]1(CCCO)CCOCC1.O=S(=O)([N-]S(=O)(=O)C(F)(F)F)C(F)(F)F	307 ± 21	269 ± 18	243 ± 17	218 ± 15	194 ± 13	176 ± 12	–	–
C=CCCCC [hex-1-ene] + C[N+]1(CCCO)CCOCC1.O=S(=O)([N-]S(=O)(=O)C(F)(F)F)C(F)(F)F	58.2 ± 4	51.7 ± 3.5	45.2 ± 3.1	40.5 ± 2.8	35.9 ± 2.5	–	–	–
C#CCCCCC [1-heptyne] + C[N+]1(CCCO)CCOCC1.O=S(=O)([N-]S(=O)(=O)C(F)(F)F)C(F)(F)F	20 ± 1.4	19.2 ± 1.3	18.4 ± 1.3	17.6 ± 1.2	16.9 ± 1.2	16.3 ± 1.1	–	–
CCCCCCCCCC [decane] + C[N+]1(CCCO)CCOCC1.O=S(=O)([N-]S(=O)(=O)C(F)(F)F)C(F)(F)F	624 ± 43	543 ± 37	479 ± 33	419 ± 29	363 ± 25	328 ± 23	–	–
CO [methanol] + C[N+]1(CCCO)CCOCC1.O=S(=O)([N-]S(=O)(=O)C(F)(F)F)C(F)(F)F	0.945 ± 0.06	0.929 ± 0.059	0.915 ± 0.058	0.899 ± 0.057	0.884 ± 0.056	0.872 ± 0.056	–	–
C#CCCC [1-pentyne] + C[N+]1(CCCO)CCOCC1.O=S(=O)([N-]S(=O)(=O)C(F)(F)F)C(F)(F)F	7.77 ± 0.53	7.48 ± 0.51	7.24 ± 0.49	6.99 ± 0.48	6.79 ± 0.46	6.63 ± 0.45	–	–
CC(C)OC(C)C [diisopropyl ether] + C[N+]1(CCCO)CCOCC1.O=S(=O)([N-]S(=O)(=O)C(F)(F)F)C(F)(F)F	17.3 ± 1.2	17.1 ± 1.2	16.9 ± 1.2	16.7 ± 1.1	16.5 ± 1.1	16.3 ± 1.1	–	–
C=Cc1ccccc1 [styrene] + C[N+]1(CCCO)CCOCC1.O=S(=O)([N-]S(=O)(=O)C(F)(F)F)C(F)(F)F	3.45 ± 0.23	3.51 ± 0.24	3.58 ± 0.24	3.66 ± 0.25	3.72 ± 0.25	3.78 ± 0.26	–	–
C1CCCCCC1 [cycloheptane] + C[N+]1(CCCO)CCOCC1.O=S(=O)([N-]S(=O)(=O)C(F)(F)F)C(F)(F)F	82.8 ± 5.7	71 ± 4.9	62.6 ± 4.3	54.5 ± 3.7	47.2 ± 3.2	43 ± 2.9	–	–
C1COCCO1 [1,4-dioxane] + C[N+]1(CCCO)CCOCC1.O=S(=O)([N-]S(=O)(=O)C(F)(F)F)C(F)(F)F	0.6 ± 0.042	0.653 ± 0.045	0.709 ± 0.047	0.758 ± 0.05	0.811 ± 0.052	0.859 ± 0.055	–	–
C=CCCC [1-pentene] + C[N+]1(CCCO)CCOCC1.O=S(=O)([N-]S(=O)(=O)C(F)(F)F)C(F)(F)F	38.3 ± 2.6	30.6 ± 2.1	–	–	–	–	64.5 ± 4.4	49.4 ± 3.4
CCCOCCC [dipropyl ether] + C[N+]1(CCCO)CCOCC1.O=S(=O)([N-]S(=O)(=O)C(F)(F)F)C(F)(F)F	20.1 ± 1.4	19.5 ± 1.3	18.9 ± 1.3	18.4 ± 1.3	17.9 ± 1.2	17.4 ± 1.2	–	–
C=CCCCCCC [oct-1-ene] + C[N+]1(CCCO)CCOCC1.O=S(=O)([N-]S(=O)(=O)C(F)(F)F)C(F)(F)F	133 ± 9	117 ± 8	106 ± 7	94.6 ± 6.5	85.2 ± 5.8	77.2 ± 5.3	–	–
CCCC=O [butanal] + C[N+]1(CCCO)CCOCC1.O=S(=O)([N-]S(=O)(=O)C(F)(F)F)C(F)(F)F	1.37 ± 0.09	1.4 ± 0.09	1.43 ± 0.09	1.45 ± 0.1	1.48 ± 0.1	1.5 ± 0.1	–	–
CCCCCC [hexane] + C[N+]1(CCCO)CCOCC1.O=S(=O)([N-]S(=O)(=O)C(F)(F)F)C(F)(F)F	154 ± 11	122 ± 8	–	–	–	–	267 ± 18	201 ± 14
C#CCCCC [1-hexyne] + C[N+]1(CCCO)CCOCC1.O=S(=O)([N-]S(=O)(=O)C(F)(F)F)C(F)(F)F	12.5 ± 0.9	11.9 ± 0.8	11.6 ± 0.8	11.2 ± 0.8	10.7 ± 0.7	10.4 ± 0.7	–	–
CCC(C)(C)OC [2-methoxy-2-methylbutane] + C[N+]1(CCCO)CCOCC1.O=S(=O)([N-]S(=O)(=O)C(F)(F)F)C(F)(F)F	8.7 ± 0.59	8.75 ± 0.6	8.8 ± 0.6	8.86 ± 0.6	8.89 ± 0.61	8.93 ± 0.61	–	–
CCO [ethanol] + C[N+]1(CCCO)CCOCC1.O=S(=O)([N-]S(=O)(=O)C(F)(F)F)C(F)(F)F	1.4 ± 0.09	1.37 ± 0.09	1.34 ± 0.09	1.3 ± 0.08	1.28 ± 0.08	1.25 ± 0.08	–	–
C=COC(C)=O [vinyl acetate] + C[N+]1(CCCO)CCOCC1.O=S(=O)([N-]S(=O)(=O)C(F)(F)F)C(F)(F)F	1.87 ± 0.13	1.91 ± 0.13	1.94 ± 0.13	1.98 ± 0.13	2 ± 0.14	2.03 ± 0.14	–	–
CC(C)CC(C)(C)C [2,2,4-trimethylpentane] + C[N+]1(CCCO)CCOCC1.O=S(=O)([N-]S(=O)(=O)C(F)(F)F)C(F)(F)F	272 ± 19	226 ± 16	191 ± 13	165 ± 11	140 ± 10	125 ± 9	–	–
CCCO [propan-1-ol] + C[N+]1(CCCO)CCOCC1.O=S(=O)([N-]S(=O)(=O)C(F)(F)F)C(F)(F)F	2.06 ± 0.14	2.01 ± 0.14	1.96 ± 0.13	1.92 ± 0.13	1.88 ± 0.13	1.84 ± 0.12	–	–
C1=CCCCC1 [cyclohexene] + C[N+]1(CCCO)CCOCC1.O=S(=O)([N-]S(=O)(=O)C(F)(F)F)C(F)(F)F	23.7 ± 1.6	21.6 ± 1.5	20.2 ± 1.4	18.6 ± 1.3	17.1 ± 1.2	16.2 ± 1.1	–	–
CC#N [acetonitrile] + C[N+]1(CCCO)CCOCC1.O=S(=O)([N-]S(=O)(=O)C(F)(F)F)C(F)(F)F	0.479 ± 0.037	0.495 ± 0.038	0.513 ± 0.038	0.528 ± 0.039	0.545 ± 0.04	0.561 ± 0.04	–	–
